In a melting point compilation (Tetko et al.; mined from patent text by program, amines drawn as free bases though some values may be those of a salt):

Row | melting point [°C] | SMILES
1 | 206 to 208 | Oc1ccc(C2COc3cc(O)cc(O)c3C2)cc1 (stereo not drawn)
2 | 73 to 74 | CCCCCCCCOc1cnc(-c2ccc(CCCCCC(C)OC(C)=O)cc2)nc1 (single isomer, unassigned; (+))
3 | 88 to 89 | CC(C)(C)C(=O)SC1CCN(C(C(=O)C2CC2)c2ccccc2F)CC1 (stereo not drawn)
4 | 259 to 261 | CC(C)(C)c1ccc(C(=O)NN=Cc2c(O)ccc3ccccc23)cc1
5 | 57 to 59 | CCCN(CCC)Sc1nc2ccccc2s1
6 | 126 to 128 | CCNc1ccc(-c2cc3ccccc3o2)cc1
7 | 226 to 227 | O=C(O)COc1ccc2c(-c3ccc(Cl)cc3F)noc2c1Cl
8 | 107 to 108 | CCc1cc(C(=O)NCc2ccc(-c3ccc(OC(F)F)cc3)cc2)n(C)n1
9 | 100 | COc1cc(C)cc(OC)c1NC1C2CC3CC(C2)CC1C3 (stereo not drawn)
10 | 80 | NC(CSc1ccccc1N)=NO
11 | > 260 | N#CC1=C(C2CC2)Nc2n[nH]cc2C1c1cccc(N2CCOCC2)c1 (stereo not drawn)
12 | 298 to 301 | O=C(NC1CCCCC1)c1cc2ccncc2[nH]1
13 | 104 to 106 | COC(=O)CC1COc2ccc(N)cc2C1 (stereo not drawn)
14 | 97 to 99 | COC(=O)[C@H](Cc1ccc(O)c(C2SCCS2)c1)NC(C)=O
15 | 270 to 273 | O=S1(=O)N=CN(C2CC2)c2cc(F)cc(Br)c21
16 | 237 | CCCCC(CC)COc1ccc(N2C(C)=CC(=C=C3C(C#N)C(=C(C#N)C#N)OC3(C)C)C=C2C)cc1 (stereo not drawn)
17 | 103 to 105 | COc1ccc(C=NNS(=O)(=O)c2ccc(C)cc2)cc1
18 | 195 to 196 | CN(c1cc(OCCCS(C)(=O)=O)cc2cc(C(=O)NCC(CN3CCN(S(C)(=O)=O)CC3)SCc3ccccc3)[nH]c12)S(=O)(=O)c1ccccn1 (stereo not drawn)
19 | 223 | Cc1cn(C2=CCC(O)CC2)c(=O)[nH]c1=O (racemic)
20 | 129 to 131 | CC(=O)c1ccc(NS(C)(=O)=O)c(Cl)c1
21 | 98 to 100 | CCc1cc(C)cc(CC)c1C(C(=O)NC)C(=O)NC
22 | 242 to 244 | O=C(O)c1ccc(C(=O)/C=C/c2ccc(F)c(-c3cccs3)c2)cc1
23 | 61 to 63 | COC(=O)c1cc(N(C)C)c(N(C)C)c(N(C)C)c1

Row | melting point [°C] | SMILES
24 | 226 | CSc1nc(O)c(-c2ccc(C)cc2)c(O)n1
25 | 55 to 56 | COC(=O)C=Cc1ccc(C)cc1
26 | 129 to 130 | N#Cc1cccc(Oc2c(-c3ccccc3)cccc2-c2ccccc2)c1C#N
27 | 217 to 219 | CC(C)Oc1nc2cc(-n3ccc(=O)cc3)c([N+](=O)[O-])cc2nc1OC(C)C
28 | 218 to 219 | COc1cc(Cl)cc(C)c1Nc1nc2c(Cl)ccc(C(O)(C(C)C)C(C)C)c2n1C
29 | 129 to 132 | CS(=O)(=O)c1ccc(-n2nc(CNC(=O)Nc3ccc(C(F)(F)F)cc3)cc2-c2ccccc2)cc1
30 | 198 to 200 | O=C(O)CN(CCc1ccccc1)C(=O)[C@@H]1C[C@@H](S)CN1S(=O)(=O)c1ccc2ccccc2c1
31 | 128 to 129 | CS(=O)(=O)c1ccc(-c2cnn(-c3ccc(F)c(F)c3)c(=O)c2CCC=C2CC2)cc1
32 | 201 to 205 | O=C(O)c1cc(-n2c(-c3ccccc3)cc3c2Cc2ccccc2-3)ccc1O
33 | 114 to 117 | Nc1nc(N2CCCC2)c2ncn([C@@H]3C[C@H](CO)[C@@H](O)C3)c2n1
34 | 138 to 140 | Cc1nc2c3c(ccn2c1C)C(=O)CC(c1ccccc1)N3 (stereo not drawn)
35 | > 350 | O=C1NC(=O)C(=Cc2cc(O)c(O)c([N+](=O)[O-])c2)N1
36 | 199 to 201 | C=C(C)C(=O)Nc1ccc(O)c(-n2nc3ccc(OC)cc3n2)c1
37 | 222 to 224 | O=S(=O)(c1nc[nH]n1)c1ccc(C(F)(F)F)cc1Cl
38 | 165 to 166 | Cc1oc(-c2ccccc2)nc1/C=C/c1ccc(/C=C/CO)cc1
39 | 123 to 125 | CC(C)(C)C1=CC(O)(c2ccc(F)cc2)C=C(C(C)(C)C)C1=O
40 | 103 to 104 | CCC(CC)C(NS(=O)(=O)c1ccc(Cl)s1)c1ncnn1Cc1ccc(C)cc1 (stereo not drawn)
41 | 190 to 195 | Cc1ccc(C(=O)n2c3c(c4ccccc42)CC(C(=O)O)(C(=O)O)CC3)cc1
42 | 194 to 196 | CN(C)c1cc2nc(C(=O)O)c(=O)[nH]c2cc1[N+](=O)[O-]
43 | 189 to 191 | Cc1ccc(C(=O)Nc2nc3ccccc3c(=O)n2C)cc1
44 | 155 | O=CNC1=CCc2cc(Cl)ccc21
45 | 75 to 76 | CCOCc1nc2c(NC(C)=O)nc3ccccc3c2n1CC(C)(C)NS(C)(=O)=O
46 | 173 to 178 | CC1CC(c2c(S(C)(=O)=O)ccc(C(=O)O)c2Cl)=NO1 (stereo not drawn)

Row | melting point [°C] | SMILES
47 | 135 | O=S(=O)(c1ccc(F)cc1)N1CCCC1c1ccsc1 (racemic)
48 | 192 to 194 | CC(=O)NC[C@H]1CN(c2ccc(N3CCC(F)(F)CC3)c(F)c2)C(=O)O1
49 | 84 to 86 | COC(=O)[C@H](COCc1ccccc1)NC(=O)Nc1n[nH]c(=S)s1
50 | 304 to 306 | O=C1CC(c2ccc(O)cc2)=Nc2ccc(N3CCCC3)cc21
51 | 180 to 182 | CN1Cc2ccc(OCCCCN3CCN(c4cccc5ccccc45)CC3)nc2NC1=O
52 | 146 to 148 | Cc1nc2ccc(Cl)nn2c1Br
53 | 192 | CCN(C)C(=O)C(Cc1ccc(C#N)cc1)NC(=O)C(Cc1ccc(OC)cc1)S(=O)(=O)Nc1ccc(Cl)c(Cl)c1 (stereo not drawn)
54 | 258 to 260 | O=c1[nH]c2cc([N+](=O)[O-])ccc2c(=O)n1S(=O)(=O)c1ccc(Cl)cc1
55 | 269 | Cc1ccc2[nH]c(=O)c(C#N)c(N3CCN(C(=O)c4cccs4)CC3)c2c1
56 | 123 to 124 | COc1nc(C)cnc1NS(=O)(=O)c1cccnc1-c1ccc(COC(C)C)cc1
57 | 226 to 228 | CC1=C(C(=S)Cc2ccccc2)C(c2ccccc2)C2=C(N1)c1ccccc1C2=O (stereo not drawn)
58 | 121 | CN1CCC(C2c3sccc3CCn3ccnc32)CC1 (stereo not drawn)
59 | 158 | COC1CN(CC2CCCO2)CCC1NC(=O)c1cc(Cl)c(N)c2c1OCCC2 (stereo not drawn)
60 | 127 to 129 | CCCCCc1ncc(C(=O)OCC)c(O)n1
61 | > 350 | O=c1cc2c3cccnc3sn2c2ccccc12
62 | 110 to 111 | O=C1CCc2ccc(OCCCCN3CCCN(c4cccc(Cl)c4Cl)CC3)nc2N1
63 | 178 | CC=Cc1cn(C2CC(O)C(CO)O2)c(=O)[nH]c1=O (stereo not drawn)
64 | 119 to 121 | COC=Nc1c(SC)c(-c2ncon2)nn1-c1c(Cl)cc(C(F)(F)F)cc1Cl
65 | 159 | COC(=O)COc1ncccc1Oc1cc(NC(=O)CC(=O)C(F)(F)F)c(F)cc1Cl
66 | 114 to 117 | Cc1nccc(N2CCC(O)(CN3CCN(C(=O)c4ccc(F)cc4)CC3)CC2)n1
67 | 102 | NCCc1cccc(N2C(=O)N(c3ccc(C(F)(F)F)cc3Cl)Cc3cnc(Nc4ccccc4)nc32)c1
68 | 83 to 85 | Cc1ccc(-n2nc(C(N)=O)nc2-c2ccccc2)cc1COCCC(C)C
69 | 155 to 157 | COC(=O)CC1c2cc(OC)ccc2N(c2nc3ccccc3nc2Cl)C1C (stereo not drawn)

Row | melting point [°C] | SMILES
70 | 137 to 139 | CN(C)Cc1ccnc(CSCCNc2ncc(Cc3ccn(C)c(=O)c3)c(=O)[nH]2)c1
71 | 196 | CS(=O)(=O)C(=C1CN(C(c2ccccc2)c2ccccc2)C1)c1cccc2ccccc12
72 | 145 to 148 | COc1cccc2oc(Cn3nc(-c4ccc(OC(C)C)c(F)c4)c4c(N)ncnc43)c(-c3cccc(F)c3)c(=O)c12
73 | 95 | COC(=O)c1ccc(OS(=O)(=O)C(F)(F)F)c(C23CC4CC(CC(C4)C2)C3)c1
74 | 134 to 136 | C[C@H](NS(=O)(=O)c1ccc2ccccc2c1)C(=O)Cl
75 | 222 to 224 | CCC(C)(C)Nc1c(NCc2cc(C)cc(C)c2)c(=O)c1=O
76 | 182 to 184 | Cc1c(C(=O)O)ccc(S(C)(=O)=O)c1C1=NOCC1
77 | 190 to 192 | O=Cc1ccc2c(n1)C(=O)C(NC(=O)CCl)=CC2=O
78 | 261 | CNc1ccc2cc(OC)ccc2c1N=O
79 | 194 to 196 | O=C1c2c(-c3ccccc3)c3ccccc3c(=O)n2CCN1Cc1cc(C(F)(F)F)cc(C(F)(F)F)c1
80 | 167 to 168 | Cc1n[nH]c2c1C(=O)CC(c1cc(Cl)sc1Cl)C2 (stereo not drawn)
81 | 200 to 204 | N#Cc1ccc(Nn2cnnc2)cc1
82 | 54 to 55 | CNc1nc(OC(F)F)cc(OC(F)F)n1
83 | 78 to 80 | CCCCCC(=O)c1ccc(OCc2ccc3ccccc3n2)cc1
84 | 198 to 200 | N#Cc1cc(-c2ccoc2)c2ccc(COc3cc(F)cc(-c4ccccn4)c3)cc2n1
85 | 82 to 85 | CCC(CC)Oc1ccc(/C=C/C(=O)Nc2ccccc2C(=O)O)cc1OC
86 | 165 to 169 | COc1cc(OC)nc(Oc2nccc(-c3ccccc3)c2C(=O)O)n1
87 | 188 to 190 | COC(=O)C1=C(C)NC(=S)N(S(C)(=O)=O)C1c1cccc([N+](=O)[O-])c1 (stereo not drawn)
88 | 308 | CN(C(=O)c1n[nH]c2c(=O)[nH]c3cc(Cl)ccc3c(=O)c12)c1ccccc1
89 | 189 to 192 | CCCCN(CCCC)c1ccc(C=Cc2ccc(C(C#N)=C(C#N)C#N)s2)c(OC)c1
90 | 191 to 192 | Cc1ccc(-c2nc(C)c(-c3ccnc(Nc4ccc(N5CCOCC5)cc4)n3)s2)c(C)c1
91 | 212 to 214 | COc1ccc(NC(=O)c2cc(N)ccc2NC(=O)c2ccc(C(C)(C)C)cc2)cc1

Row | SMILES | melting point [°C]
92 | CC(=O)OC1CCC2(COS(=O)(=O)c3ccc(C)cc3)C(=CCC3C2CCC2(C)C(OC(C)=O)CCC32)C1 (stereo not drawn) | 135 to 137
93 | CC(=O)Nc1nc(CN2CCC(c3c[nH]c4ccccc34)CC2)cs1 | 204 to 207
94 | CCC12CC(Cl)C3C4CCC(=O)C=C4CCC3C1C(OC(C)=O)CC2=O (stereo not drawn) | 125
95 | Cc1cccc(NC(=O)NC2N=C(c3ccccc3F)c3ccccc3N(Cc3nc4ccccc4[nH]3)C2=O)c1 (racemic) | 165 to 167
96 | N#Cc1ccc(N2C(=O)[C@@H]3[C@H](O)CCN3C2=O)c2c1OCCO2 | 196 to 197
97 | CN1CCN(c2nccnc2Cl)CC1 | 34 to 36
98 | OCc1ccc(C2=NOC(c3cc(Cl)cc(Cl)c3)(C(F)(F)F)C2)cc1 (stereo not drawn) | 108 to 110
